According to ChEMBL document CHEMBL4321815, “Discovery of an Extremely Potent Thiazine-Based β-Secretase Inhibitor with Reduced Cardiovascular and Liver Toxicity at a Low Projected Human Dose” (J Med Chem, 2019):

Assays:
Cathepsin D = Cathepsin D (Homo sapiens, UniProt P07339); assay: Inhibition of Cathepsin D (unknown origin)
Beta-secretase 2 = biological target: T1, Beta-secretase 2 (Homo sapiens, UniProt Q9Y5Z0); assay: Inhibition of BACE2 (unknown origin) by HTRF assay
T1 sequence (Q9Y5Z0 whole entry): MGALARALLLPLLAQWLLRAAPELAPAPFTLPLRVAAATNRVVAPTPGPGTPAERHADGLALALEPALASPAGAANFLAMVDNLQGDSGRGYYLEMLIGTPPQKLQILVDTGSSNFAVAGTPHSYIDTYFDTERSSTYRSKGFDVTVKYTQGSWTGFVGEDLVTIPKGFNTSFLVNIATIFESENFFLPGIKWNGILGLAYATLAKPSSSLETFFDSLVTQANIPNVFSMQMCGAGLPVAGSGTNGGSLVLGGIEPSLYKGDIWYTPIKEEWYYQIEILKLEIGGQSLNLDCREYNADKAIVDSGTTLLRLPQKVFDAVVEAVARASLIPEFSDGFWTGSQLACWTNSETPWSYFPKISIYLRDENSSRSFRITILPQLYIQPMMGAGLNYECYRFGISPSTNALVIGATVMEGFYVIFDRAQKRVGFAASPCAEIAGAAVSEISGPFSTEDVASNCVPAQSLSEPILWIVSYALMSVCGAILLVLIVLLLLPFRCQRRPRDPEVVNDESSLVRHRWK

[1] = Metabolic stability in human hepatocytes at 2 uM incubated for 2 hr; format: ADME, cell-based, Hepatocyte; settings: read-out: Stability
[2] = Metabolic stability in dog hepatocytes at 2 uM incubated for 2 hr; format: ADME, cell-based, Canis lupus familiaris, Hepatocyte; settings: read-out: Stability
[3] = Metabolic stability in rat hepatocytes at 2 uM incubated for 2 hr; format: ADME, cell-based, Hepatocyte; settings: read-out: Stability
[4] = Metabolic stability in mouse hepatocytes at 2 uM incubated for 2 hr; format: ADME, cell-based, Hepatocyte; settings: read-out: Stability
[5] = Metabolic stability in cynomolgus monkey hepatocytes at 2 uM incubated for 2 hr; format: ADME, cell-based, Macaca fascicularis, Hepatocyte; settings: read-out: Stability
[6] = Fraction unbound in human plasma after 24 hrs by equilibrium dialysis based LC-MS/MS analysis; format: ADME, cell-free
[7] = Fraction unbound in rat plasma after 24 hrs by equilibrium dialysis based LC-MS/MS analysis; format: ADME, cell-free
[8] = Fraction unbound in mouse plasma after 24 hrs by equilibrium dialysis based LC-MS/MS analysis; format: ADME, cell-free
[9] = Fraction unbound in dog plasma after 24 hrs by equilibrium dialysis based LC-MS/MS analysis; format: ADME, cell-free, Canis lupus familiaris
[10] = Fraction unbound in monkey plasma after 24 hrs by equilibrium dialysis based LC-MS/MS analysis; format: ADME, cell-free, Macaca mulatta; settings: rhesus monkey
[11] = Fraction unbound in mouse brain at 5 uM incubated for 5 hrs by HPLC-MS/MS analysis; format: ADME, tissue-based
[12] = Clearance in Sprague-Dawley rat at 0.5 mg/kg, iv by LC/MS/MS analysis; format: ADME, organism-based; settings: in vivo
[13] = Cmax in Sprague-Dawley rat at 1 mg/kg, po by LC/MS/MS analysis; format: ADME, organism-based; parameters: dose 1 mg/kg, route oral; settings: in vivo
[14] = Oral bioavailability in Sprague-Dawley rat at 1 mg/kg by LC/MS/MS analysis; format: ADME, organism-based; settings: in vivo
[15] = Unbound brain-to-plasma concentration ratio in Sprague-Dawley rat at 0.5 mg/kg, iv after 30 mins by LC-MS/MS analysis; format: ADME, organism-based; settings: brain and plasma, read-out: K(p,uu,brain)
Mus musculus [16] = assay: In vivo inhibition of BACE1 in po dosed Crl:CD1(ICR) mouse assessed as reduction in amyloidbeta level in brain after 2 to 6 hrs by ELISA; format: functional, organism-based
Mus musculus [17] = assay: In vivo inhibition of BACE1 in Crl:CD1(ICR) mouse assessed as reduction in amyloidbeta level in brain at 3 mg/kg, po after 2 to 6 hrs by ELISA relative to control; format: functional
Mus musculus [18] = assay: In vivo inhibition of BACE1 in Crl:CD1(ICR) mouse assessed as reduction in amyloidbeta level in brain at 1 mg/kg, po after 2 to 6 hrs by ELISA relative to control; format: functional
[19] = Drug level in Crl:CD1(ICR) mouse brain at 1 mg/kg, po after 2 to 6 hrs; format: ADME, organism-based; settings: in vivo, read-out: Drug uptake
[20] = Free drug level in Crl:CD1(ICR) mouse brain at 1 mg/kg, po after 2 to 6 hrs; format: ADME, organism-based; settings: in vivo
[21] = Drug level in Crl:CD1(ICR) mouse brain at 3 mg/kg, po at 6 hrs; format: ADME, organism-based; settings: read-out: Drug uptake
[22] = Free drug level in Crl:CD1(ICR) mouse brain at 3 mg/kg, po at 6 hrs; format: ADME, organism-based; settings: in vivo
Canis familiaris [23] = assay: In vivo inhibition of BACE1 in po dosed Beagle dog assessed as reduction in amyloidbeta42 level in CSF measured after 4 to 49 hrs; format: functional, organism-based; settings: Canis lupus familiaris
Canis familiaris [24] = assay: In vivo inhibition of BACE1 in Beagle dog assessed as reduction in amyloidbeta42 level in CSF at 1.25 mg/kg, po administered as single dose measured after 4 to 49 hrs relative to control; format: functional; settings: Canis lupus familiaris
Canis familiaris [25] = assay: In vivo inhibition of BACE1 in Beagle dog assessed as reduction in amyloidbeta42 level in CSF at 0.08 mg/kg, po administered as single dose measured after 4 to 49 hrs relative to control; format: functional; settings: Canis lupus familiaris
[26] = Unbound CSF to plasma concentration ratio in Beagle dog at 0.08 to […], po measured up to 49 hrs; format: ADME, organism-based, Canis lupus familiaris; settings: CSF and plasma
Canis familiaris [27] = assay: In vivo inhibition of BACE1 in po dosed Beagle dog assessed as plasma level causing 50% reduction in amyloidbeta42 level in CSF administered as single dose measured after 4 to 49 hrs; format: functional, organism-based; settings: Canis lupus familiaris
Canis familiaris [28] = assay: In vivo inhibition of BACE1 in po dosed Beagle dog assessed as plasma level causing 80% reduction in amyloidbeta42 level in CSF administered as single dose measured after 4 to 49 hrs; format: functional, Canis lupus familiaris
[29] = Clearance in mouse at 0.5 mg/kg, iv; format: ADME, organism-based; settings: in vivo
[30] = Volume of distribution at steady state in mouse at 0.5 mg/kg, iv; format: ADME, organism-based; settings: in vivo, read-out: Vdss
[31] = Half life in mouse at 0.5 mg/kg, iv; format: ADME, organism-based; settings: in vivo

Chain of Cathepsin D (P07339 65-162 limits assumed): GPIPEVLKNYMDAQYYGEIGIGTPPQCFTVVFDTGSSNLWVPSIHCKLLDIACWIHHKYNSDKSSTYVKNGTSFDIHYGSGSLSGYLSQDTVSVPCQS
Chain of Cathepsin D (P07339 169-412 limits assumed): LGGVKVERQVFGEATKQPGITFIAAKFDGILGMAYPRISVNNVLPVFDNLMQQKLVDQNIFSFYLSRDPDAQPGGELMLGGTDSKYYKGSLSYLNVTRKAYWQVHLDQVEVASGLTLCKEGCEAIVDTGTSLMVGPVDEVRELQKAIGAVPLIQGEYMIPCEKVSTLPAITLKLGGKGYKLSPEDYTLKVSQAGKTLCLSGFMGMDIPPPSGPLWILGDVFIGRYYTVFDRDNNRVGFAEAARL

C[C@H]1SC(N)=N[C@](C)(c2cc(NC(=O)c3cnc(OCF)cn3)ccc2F)[C@H]1F
IC50 (Cathepsin D): ≥ 100000 nM
IC50 (Beta-secretase 2): 7.1 nM
remaining at 2 h, 2 µM [1]: 89%
remaining at 2 h, 2 µM [2]: 90%
remaining at 2 h, 2 µM [3]: 74%
remaining at 2 h, 2 µM [4]: 71%
remaining at 2 h, 2 µM [5]: 55%
fraction unbound at 24 h [6]: 0.083
fraction unbound at 24 h [7]: 0.12
fraction unbound at 24 h [8]: 0.15
fraction unbound at 24 h [9]: 0.078
fraction unbound at 24 h [10]: 0.12
fraction unbound at 5 h, 5 µM [11]: 0.034
clearance [12]: 24.8 to 27 mL/min/kg
Cmax [13]: 38.4 ng/mL
bioavailability [14]: 31%
Kp uu at 0.5 h [15]: 0.95
inhibition (Mus musculus [16]): Dose-dependent effect
inhibition in vivo at 3 mg/kg (Mus musculus [17]): 90%
inhibition in vivo at 1 mg/kg (Mus musculus [18]): 55%
concentration [19]: 87 nM
Drug uptake(free) [20]: 3 nM
concentration at 6 h [21]: 611 nM
Drug uptake(free) [22]: 73 nM
inhibition (Canis familiaris [23]): Dose-dependent effect
inhibition in vivo at 1.25 mg/kg (Canis familiaris [24]): 80%
inhibition in vivo at 0.08 mg/kg (Canis familiaris [25]): 50%
Kp uu at 49 h [26]: 0.77
EC50 (Canis familiaris [27]): 21 nM
EC80 (Canis familiaris [28]): 100 nM
clearance [29]: 41 mL/min/kg
Vd [30]: 7.5 L/kg
half-life [31]: 3.2 h
